Where “and” joins values, the source holds several entries; their conditions need not be identical. Identical values can stand only once. Blank lines part the entries; values can stand above or below the compound they belong to.
Test: Concentration of paracetamol and its metabolites in plasma, CSF and brain cortex by LC-MS/MS
Procedure: Drug injection protocol is illustrated in Fig. 1.
Male and female postnatal P4 pups and 7–8 week-old non-pregnant females were used. […] In combination therapy experiments, this dose was accompanied by one of the 7 other drugs (Table 1). For all experiments, animals were terminally anesthetized 30 min after the drug injection using inhaled isoflurane (IsoFlo 100% w/w, Abbott Laboratories), and blood, CSF, and brain samples were collected. Blood was collected directly from the right cardiac ventricle, CSF from the cisterna magna, and cortical brain samples from the frontal/parietal lobes dorsal to the lateral ventricles as described previously.
Pregnant E19 dams were anesthetized with ip urethane injection (25% w/v urethane, Sigma, 1 ml/100 g body weight) and placed on a 39 °C heating pad in the supine position. An endotracheal catheter was inserted to maintain a clear airway. Catheters were inserted into the femoral vein and artery for iv drug administration and arterial blood sampling respectively. The cannula was flushed with 0.5 ml of heparinized saline (Hospira Inc, 5,000 units/ml) after drug administration and following each arterial blood sample. Following drug administration to the dams, fetuses were exteriorized and serially collected starting at 30 min post-maternal injection. […] At collection, the viability of each fetus was assessed (presence of a heartbeat, the colour of the umbilical vessels) and blood, CSF, and brain samples were taken along with a time-matched maternal blood sample from the femoral artery. At the end of the experiment, a final maternal blood sample was taken directly from the left cardiac ventricle, and CSF and brain samples were collected.
This method has been described previously for valproate, lamotrigine, and olanzapine and was applied in the present study. Simultaneous quantification was performed for all compounds in plasma, brain, and CSF samples following the addition of respective stable isotope-labeled internal standards.
Linear response range was determined in untreated control rat plasma for each compound at 0.1, 1, 10, 50, 100, 200, 400, and 800 µg/ml.

[1] = E19 rats, maternal iv paracetamol 15 mg/kg + cimetidine 11 mg/kg (PARA+CIM, n=10), median (IQR)
[2] = E19 rats, maternal iv paracetamol 15 mg/kg + digoxin 0.03 mg/kg (PARA+DIG, n=9), median (IQR)
[3] = E19 rats, maternal iv paracetamol 15 mg/kg + lamotrigine 6 mg/kg (PARA+LTG, n=10), median (IQR)
[4] = E19 rats, maternal iv paracetamol 15 mg/kg + olanzapine 0.15 mg/kg (PARA+OLZ, n=10), median (IQR), all values if <3 detected
[5] = E19 rats, maternal iv paracetamol 15 mg/kg + valproate 30 mg/kg (PARA+VPA, n=10), median (IQR)
[6] = E19 rats, maternal iv paracetamol 15 mg/kg + valproate 30 mg/kg (PARA+VPA, n=10), median (IQR), all values if <3 detected
[7] = E19 rats, maternal iv paracetamol 15 mg/kg monotherapy (PARA, n=10), median (IQR)
[8] = P4 rats, 30 min after ip paracetamol 15 mg/kg + cimetidine 11 mg/kg (PARA+CIM, n=4), median (IQR)
[9] = P4 rats, 30 min after ip paracetamol 15 mg/kg + digoxin 0.03 mg/kg (PARA+DIG, n=4), median (IQR)
[10] = P4 rats, 30 min after ip paracetamol 15 mg/kg + fluvoxamine 1.5 mg/kg (PARA+FLX, n=4), median (IQR)
[11] = P4 rats, 30 min after ip paracetamol 15 mg/kg + fluvoxamine 1.5 mg/kg (PARA+FLX, n=4), median (IQR) or individual values
[12] = P4 rats, 30 min after ip paracetamol 15 mg/kg + lithium 3.2 mg/kg (PARA+Li, n=4), median (IQR)
[13] = P4 rats, 30 min after ip paracetamol 15 mg/kg + olanzapine 0.15 mg/kg (PARA+OLZ, n=4), median (IQR)
[14] = P4 rats, 30 min after ip paracetamol 15 mg/kg monotherapy (PARA, n=4), median (IQR)
[15] = non-pregnant adult rats, 30 min after ip paracetamol 15 mg/kg + fluvoxamine 1.5 mg/kg (PARA+FLX, n=4), median (IQR)
[16] = non-pregnant adult rats, 30 min after ip paracetamol 15 mg/kg + fluvoxamine 1.5 mg/kg (PARA+FLX, n=4), median (IQR), individual values if <3 samples
[17] = non-pregnant adult rats, 30 min after ip paracetamol 15 mg/kg + olanzapine 0.15 mg/kg (PARA+OLZ, n=4), median (IQR)
[18] = non-pregnant adult rats, 30 min after ip paracetamol 15 mg/kg monotherapy (PARA, n=6), median (IQR)
[19] = P4 rats, 30 min after ip paracetamol 15 mg/kg + lamotrigine 6 mg/kg (PARA+LTG, n=5), median (IQR)
[20] = P4 rats, 30 min after ip paracetamol 15 mg/kg + valproate 30 mg/kg (PARA+VPA, n=4), median (IQR) or individual values
[21] = non-pregnant adult rats, 30 min after ip paracetamol 15 mg/kg + digoxin 0.03 mg/kg (PARA+DIG, n=3), median (IQR)
[22] = non-pregnant adult rats, 30 min after ip paracetamol 15 mg/kg + lamotrigine 6 mg/kg (PARA+LTG, n=3), median (IQR), individual values if <3 samples

- Concentration in CSF [2]: 0.2 µg/mL
- Concentration in brain [2]: 0.5 µg/mL
- Concentration in brain [4]: 0.7 µg/mL
- Concentration in CSF [8]: 0.2 (0.04) µg/ml
- Concentration in CSF [9]: 0.1 (0.03) µg/ml
- Concentration in brain [9]: 0.1 µg/mL
- Concentration in CSF [10]: 0.2 (2) µg/ml
- Concentration in brain [11]: 0.1 µg/mL
- Concentration in CSF [12]: 0.1 (0.05) µg/ml
- Concentration in brain [12]: 0.2 µg/mL
- Concentration in CSF [13]: 0.5 µg/mL
- Concentration in CSF [14]: 0.2 (0.1) µg/ml
- Concentration in CSF [15]: 0.05 (0.04) µg/ml
- Concentration in brain [16]: 0.2 µg/mL and 1 µg/mL
- Concentration in CSF [17]: 0.1 µg/mL
- Concentration in brain [17]: 0.1 µg/mL
- Concentration in brain [18]: 2.0 µg/mL
- change in plasma concentration following combination therapy (rat, in vivo): no significant changes
SMILES: CC(=O)Nc1ccc(O[C@@H]2O[C@H](C(=O)O)[C@@H](O)[C@H](O)[C@H]2O)cc1 [Paracetamol-Glucuronide, paracetamol-glucuronide]
- Concentration in CSF [1]: N.D. (N.D. (not detected) are values <0.01μg/ml)
- Concentration in brain [1]: N.D. (N.D. (not detected) are values <0.01μg/ml)
- Concentration in CSF [3]: N.D. (N.D. (not detected) are values <0.01μg/ml)
- Concentration in brain [3]: N.D. (N.D. (not detected) are values <0.01μg/ml)
- Concentration in CSF [5]: N.D. (N.D. (not detected) are values <0.01μg/ml)
- Concentration in brain [6]: N.D. (N.D. (not detected) are values <0.01μg/ml)
- Concentration in CSF [7]: N.D. (N.D. (not detected) are values <0.01μg/ml)
- Concentration in brain [7]: N.D. (N.D. (not detected) are values <0.01μg/ml)

- Concentration in CSF [1]: 0.06 (0.04) µg/ml
- Concentration in brain [1]: 0.02 (0.02) µg/ml
- Concentration in CSF [2]: 0.05 (0.04) µg/ml
- Concentration in brain [2]: 0.01 (0.01) µg/ml
- Concentration in plasma [2]: 0.9 (0.4) µg/ml
- Concentration in plasma (E19 rats, maternal iv paracetamol 15 mg/kg + digoxin 0.03 mg/kg (PARA+DIG, n=9), median (IQR), listed as paracetamol-sulfate): 0.9 µg/mL
- Concentration in CSF [3]: 0.08 (0.05) µg/ml
- Concentration in brain [3]: 0.02 (0.02) µg/ml
- Concentration in plasma [3]: 1.1 (0.4) µg/ml
- Concentration in plasma (E19 rats, maternal iv paracetamol 15 mg/kg + olanzapine 0.15 mg/kg (PARA+OLZ, n=10), median (IQR)): 1.4 (0.5) µg/ml
- Concentration in CSF [4]: 0.09 (0.06) µg/ml
- Concentration in brain [4]: 0.05 (0.03) µg/ml
- Concentration in CSF [5]: 0.06 (0.03) µg/ml
- Concentration in plasma [6]: 0.9 (0.3) µg/ml
- Concentration in plasma (E19 rats, maternal iv paracetamol 15 mg/kg + valproate 30 mg/kg (PARA+VPA, n=10), median (IQR), all values if <3 detected, listed as paracetamol-sulfate): 0.9 µg/mL
- Concentration in CSF [7]: 0.09 (0.05) µg/ml
- Concentration in brain [7]: 0.04 (0.03) µg/ml
- Concentration in plasma [7]: 1.5 (0.4) µg/ml
- Concentration in plasma (E19 rats, maternal iv paracetamol 15 mg/kg monotherapy (PARA, n=10), median (IQR), listed as paracetamol-sulfate): 1.5 µg/mL
- Concentration in plasma (P4, monotherapy and combination therapy with any of the drugs investigated): around 5 µg/ml
- Concentration in CSF [8]: 0.1 (0.02) µg/ml
- Concentration in brain [8]: 0.06 (0.02) µg/ml
- Concentration in plasma [8]: 7.5 (1.7) µg/ml
- Concentration in CSF [9]: 0.1 (0.02) µg/ml
- Concentration in brain [9]: 0.07 (0.04) µg/ml
- Concentration in plasma [9]: 7.6 (3.3) µg/ml
- Concentration in CSF [10]: 0.1 (1.6) µg/ml
- Concentration in plasma [10]: 5.7 (1.4) µg/ml
- Concentration in brain [11]: 0.04 µg/mL and 0.05 µg/mL
- Concentration in CSF [19]: 0.07 (0.02) µg/ml
- Concentration in brain [19]: 0.06 (0.02) µg/ml
- Concentration in plasma [19]: 3.8 (0.9) µg/ml
- Concentration in CSF [12]: 0.1 (0.04) µg/ml
- Concentration in brain [12]: 0.08 (0.01) µg/ml
- Concentration in plasma [12]: 7.2 (1.2) µg/ml
- Concentration in CSF [13]: 0.05 ± 0.02 µg/mL
- Concentration in brain [13]: 0.02 µg/mL
- Concentration in plasma [13]: 2.7 (1.0) µg/ml
- Concentration in CSF (P4 rats, 30 min after ip paracetamol 15 mg/kg + valproate 30 mg/kg (PARA+VPA, n=4), median (IQR)): 0.06 (0.01) µg/ml
- Concentration in brain [20]: 0.05 µg/mL
- Concentration in plasma [20]: 4.1 (2.1) µg/ml
- Concentration in CSF [14]: 0.09 (0.05) µg/ml
- Concentration in brain [14]: 0.09 (0.03) µg/ml
- Concentration in plasma [14]: 3.1 (1.8) µg/ml
- change in plasma concentration following combination therapy (adults, any of the drugs investigated, Kruskal-Wallis test): no significant changes
- Concentration in brain (non-pregnant adult rats, 30 min after ip paracetamol 15 mg/kg + cimetidine 11 mg/kg (PARA+CIM, n=3), median (IQR)): 0.2 µg/mL
- Concentration in plasma (non-pregnant adult rats, 30 min after ip paracetamol 15 mg/kg + cimetidine 11 mg/kg (PARA+CIM, n=3), median (IQR), individual values if <3 samples): 5.5 (1.4) µg/ml
- Concentration in CSF [21]: 0.02 µg/mL
- Concentration in plasma [21]: 7.2 (2.2) µg/ml
- Concentration in brain (non-pregnant adult rats, 30 min after ip paracetamol 15 mg/kg + digoxin 0.03 mg/kg (PARA+DIG, n=3), median (IQR), individual values if <3 samples): 0.02 µg/mL
- Concentration in CSF [15]: 0.07 (0.03) µg/ml
- Concentration in plasma [15]: 12.9 (1.0) µg/ml
- Concentration in brain [16]: 0.1 (0.4) µg/ml
- Concentration in CSF [22]: 0.02 µg/mL and 0.04 µg/mL
- Concentration in brain [22]: 0.1 µg/mL
- Concentration in plasma [22]: 11.5 (0.7) µg/ml
- Concentration in brain [17]: 0.2 (0.2) µg/ml
- Concentration in plasma [17]: 14.8 (2.7) µg/ml
- Concentration in brain (non-pregnant adult rats, 30 min after ip paracetamol 15 mg/kg + valproate 30 mg/kg (PARA+VPA, n=3), median (IQR)): 0.1 µg/mL
- Concentration in plasma (non-pregnant adult rats, 30 min after ip paracetamol 15 mg/kg + valproate 30 mg/kg (PARA+VPA, n=3), median (IQR), individual values if <3 samples): 12.1 (0.4) µg/ml
- Concentration in CSF [18]: 0.02 (0.01) µg/ml
- Concentration in brain [18]: 0.1 (0.1) µg/ml
- Concentration in plasma [18]: 8.8 (5.8) µg/ml
SMILES: CC(=O)Nc1ccc(OS(=O)(=O)O)cc1 [Paracetamol-Sulfate, paracetamol-sulfate]

From article PMC11911254 (Pharmacological Reports, 2025)
